23 molecules from patent US20170007615A1, “Antibacterial Compounds” (priority 2014, published 2017) can be followed below.

In test [1] the test system is S. aureus (ATCC 29213). Nature of the test: Antibacterial activity (MIC), Gram-positive type strain. The class given is cell-based, Staphylococcus aureus. The settings on record: Staphylococcus aureus, ATCC29213; Table 13.
The test system of test [2] is N. gonorrheae (ATCC 49226). The experiment in a line: Antibacterial activity (MIC), Gram-negative type strain. It counts as cell-based, Neisseria gonorrhoeae. The settings on record: Neisseria gonorrhoeae, ATCC49226; Table 13.
For test [3], the system named is E. faecalis (ATCC 29212). Nature of the test: Antibacterial activity (MIC), Gram-positive type strain. The class given is cell-based, Enteroccocus faecalis. The settings on record: Enterococcus faecalis, ATCC29212; Table 13.
Test [4] deals with H. influenzae (ATCC 49247). The experiment in a line: Antibacterial activity (MIC), Gram-negative type strain. It counts as cell-based, Haemophilus influenzae. The settings on record: Haemophilus influenzae, ATCC49247; Table 13.
The subject of test [5] is E. coli (ATCC 25922). The experiment in a line: microbe, parasite or virus in culture. The settings on record: Escherichia coli.
Test [6] deals with E. coli (ATCC 25922). The settings on record: for MIC of Compound (μg/ml) in the presence of PMBN (128 μg/ml): Table 1, (b) No effect; for MIC of Compound (μg/ml) in the presence of PMBN (32 μg/ml): Table 12, (b) No significant effect.
The mark [7] stands for this setting: ATCC25922, read-out: MIC Compound alone, Table 1.
Setting [8] is: ATCC25922, read-out: MIC Compound alone, Table 12.

Values after ≈ are worked out from the molar mass of the structure shown. Like-named read-outs stand apart in the source and are kept apart here.

With `CCNC(=O)Nc1nc2cc(-c3cnc(NS(=O)(=O)C4CCN(C(C)=O)C4)nc3)cc(-c3ccc(C)cn3)c2s1` (centres unmarked) [Compound A-58, 1-acetyl-N-(5-(2-(3-ethylureido)-7-(5-methylpyridin-2-yl)benzo[d]thiazol-5-yl)pyrimidin-2-yl)pyrrolidine-3-sulfonamide], the MIC in test [1] is 2 µg/mL (≈ 3.44 µM); in test [2], 0.03 µg/mL (≈ 0.0517 µM); in test [3], 0.25 µg/mL (≈ 0.431 µM); in test [4] it was 1 µg/mL (≈ 1.72 µM).

As to `CCNC(=O)Nc1nc2cc(-c3cnc(NS(=O)(=O)N4CC(OC)C4)nc3)cc(-c3ccccn3)c2s1` [Compound A-49, N-(5-(2-(3-ethylureido)-7-(pyridin-2-yl)benzo[d]thiazol-5-yl)pyrimidin-2-yl)-3-methoxyazetidine-1-sulfonamide], the MIC was found to be 1 µg/mL (≈ 1.85 µM) in test [1], 0.25 µg/mL (≈ 0.462 µM) in test [2], 0.25 µg/mL (≈ 0.462 µM) in test [3] and 2 µg/mL (≈ 3.7 µM) in test [4].

As for `CCNC(=O)Nc1nc2cc(-c3cnc(NS(=O)(=O)C4CC4)nc3)cc(-c3ccccn3)c2s1` [Compound A-34, N-(5-(2-(3-ethylureido)-7-(pyridin-2-yl)benzo[d]thiazol-5-yl)pyrimidin-2-yl)cyclopropanesulfonamide], the MIC in test [1] was found to be 0.25 µg/mL (≈ 0.504 µM); in test [2], 0.015 µg/mL (≈ 0.0303 µM); in test [3], 0.015 µg/mL (≈ 0.0303 µM); in test [4], 0.12 µg/mL (≈ 0.242 µM).

Take `CCNC(=O)Nc1nc2cc(-c3cnc(NS(=O)(=O)C4CCNC4)nc3)cc(-c3ccc(C)cn3)c2s1` (centres unmarked) [Compound A-53, N-(5-(2-(3-ethylureido)-7-(5-methylpyridin-2-yl)benzo[d]thiazol-5-yl)pyrimidin-2-yl)pyrrolidine-3-sulfonamide]: the MIC in test [1] is above 64 µg/mL; in test [2], 2 µg/mL (≈ 3.71 µM); in test [3] it was 0.5 µg/mL (≈ 0.928 µM); in test [4], above 64 µg/mL.

On to `CCNC(=O)Nc1nc2cc(-c3cnc(NS(=O)(=O)C4CCCC4)nc3)cc(-c3ccccn3)c2s1` [Compound A-35, N-(5-(2-(3-ethylureido)-7-(pyridin-2-yl)benzo[d]thiazol-5-yl)pyrimidin-2-yl)cyclopentanesulfonamide], for which the MIC is at most 0.008 µg/mL in test [1], at most 0.008 µg/mL in test [2], at most 0.008 µg/mL in test [3] and 0.03 µg/mL (≈ 0.0573 µM) in test [4].

On to `CCNC(=O)Nc1nc2cc(-c3cnc(NS(=O)(=O)N4CCCC4)nc3)cc(-c3ccccn3)c2s1` [Compound A-45, N-(5-(2-(3-ethylureido)-7-(pyridin-2-yl)benzo[d]thiazol-5-yl)pyrimidin-2-yl)pyrrolidine-1-sulfonamide], for which the MIC in test [1] was 0.015 µg/mL (≈ 0.0286 µM); in test [2], at most 0.008 µg/mL; in test [3], at most 0.008 µg/mL; in test [4] it was 0.06 µg/mL (≈ 0.114 µM).

In the case of `CCNC(=O)Nc1nc2cc(-c3cnc(NS(=O)(=O)C4CC4)nc3)cc(-c3ccc(C)cn3)c2s1` [Compound A-40, N-(5-(2-(3-ethylureido)-7-(5-methylpyridin-2-yl)benzo[d]thiazol-5-yl)pyrimidin-2-yl)cyclopropanesulfonamide], the MIC is 0.015 µg/mL (≈ 0.0294 µM) in test [1], at most 0.008 µg/mL in test [2], at most 0.008 µg/mL in test [3] and 0.015 µg/mL (≈ 0.0294 µM) in test [4].

For the molecule `CCNC(=O)Nc1nc2cc(-c3cnc(NS(=O)(=O)N4CCOCC4)nc3)cc(-c3ccc(C)cn3)c2s1` [Compound A-44, N-(5-(2-(3-ethylureido)-7-(5-methylpyridin-2-yl)benzo[d]thiazol-5-yl)pyrimidin-2-yl)morpholine-4-sulfonamide], the MIC was 0.03 µg/mL (≈ 0.0541 µM) in test [1], at most 0.008 µg/mL in test [2], at most 0.008 µg/mL in test [3] and 0.03 µg/mL (≈ 0.0541 µM) in test [4].

As for `CCNC(=O)Nc1nc2cc(-c3cnc(NS(=O)(=O)N4CC[C@@H](N5CCOCC5)C4)nc3)cc(-c3ccc(C)cn3)c2s1` [Compound A-56, (R)—N-(5-(2-(3-ethylureido)-7-(5-methylpyridin-2-yl)benzo[d]thiazol-5-yl)pyrimidin-2-yl)-3-morpholinopyrrolidine-1-sulfonamide], the MIC amounted to 0.06 µg/mL (≈ 0.0962 µM) in test [1], 0.06 µg/mL (≈ 0.0962 µM) in test [2], 0.015 µg/mL (≈ 0.024 µM) in test [3] and 0.12 µg/mL (≈ 0.192 µM) in test [4].

As for `CCNC(=O)Nc1nc2cc(-c3cnc(N4CCCS4(=O)=O)nc3)cc(-c3ccccn3)c2s1` [Compound A-26, 1-(5-(2-(1,1-dioxidoisothiazolidin-2-yl)pyrimidin-5-yl)-7-(pyridin-2-yl)benzo[d]thiazol-2-yl)-3-ethylurea], the MIC in test [1] worked out at 0.06 µg/mL (≈ 0.121 µM); in test [2], 0.25 µg/mL (≈ 0.504 µM); in test [3], 0.06 µg/mL (≈ 0.121 µM); in test [4], 0.5 µg/mL (≈ 1.01 µM).

On to `CCNC(=O)Nc1nc2cc(-c3cnc(NS(=O)(=O)c4ccccc4)nc3)cc(-c3ccc(C)cn3)c2s1` [Compound A-51, N-(5-(2-(3-ethylureido)-7-(5-methylpyridin-2-yl)benzo[d]thiazol-5-yl)pyrimidin-2-yl)benzenesulfonamide], for which the MIC was 0.015 µg/mL (≈ 0.0275 µM) in test [1], at most 0.008 µg/mL in test [2], 0.008 µg/mL (≈ 0.0147 µM) in test [3] and 0.015 µg/mL (≈ 0.0275 µM) in test [4].

On to `CCNC(=O)Nc1nc2cc(-c3cnc(NS(=O)(=O)C(C)C)nc3)cc(-c3ccc(C)cn3)c2s1` [Compound A-48, N-(5-(2-(3-ethylureido)-7-(5-methylpyridin-2-yl)benzo[d]thiazol-5-yl)pyrimidin-2-yl)propane-2-sulfonamide], for which the MIC in test [1] is 0.015 µg/mL (≈ 0.0293 µM); in test [2] it was at most 0.008 µg/mL; in test [3] it was at most 0.008 µg/mL; in test [4], 0.03 µg/mL (≈ 0.0586 µM).

With `CC1COc2c(N3CCN(C)CC3)c(F)cc3c(=O)c(C(=O)O)cn1c23` (centres unmarked) [Ofloxacin, reference compound], the MIC in test [5] (setting [7]) was 0.03 µg/mL (≈ 0.083 µM). Moreover, the MIC in test [5] (setting [8]) is 0.03 µg/mL (≈ 0.083 µM). Further, in test [6], the “MIC of Compound (μg/ml) in the presence of PMBN (128 μg/ml)” value (“MIC of Compound (μg/ml) … (128 μg/ml)” for short) is on record as 0.03^(b) μg/ml and the “MIC of Compound (μg/ml) in the presence of PMBN (32 μg/ml)” value (from here on “MIC of Compound (μg/ml) … (32 μg/ml)”) is on record as 0.03^(b) μg/ml. Further, the “effect of the presence of PMBN on activity compared to compound alone” value in test [6] (Table 1 experiment) is given as “no effect”.

Take `CCNC(=O)Nc1nc2cc(-n3cnc(C)c3)cc(-c3ccccn3)c2s1` [Compound A-3, 1-Ethyl-3-[5-(4-methylimidazol-1-yl)-7-(2-pyridyl)-1,3-benzothiazol-2-yl]urea]: the MIC in test [5] (setting [7]) is above 64 µg/mL; in test [5] (ATCC25922, read-out: MIC Compound alone, Table 2), above 64 µg/mL; in test [5] (ATCC25922, read-out: MIC Compound alone, Table 3), above 64 µg/mL. Moreover, the “MIC of Compound (μg/ml) … (128 μg/ml)” value in test [6] is recorded as “<=1 μg/ml”. For the same molecule, the “MIC of Compound (μg/ml) in the presence of Colistin (1 μg/ml)” value in test [6] (Table 2, colistin sub-inhibitory) is “≦1 μg/ml”. Besides, the “MIC of Compound (μg/ml) in the presence of PMB (0.5 μg/ml)” value in test [6] (Table 3, PMB sub-inhibitory) was “≦1 μg/ml”.

`CCNC(=O)Nc1nc2cc(-c3cnc(NS(=O)(=O)C(C)(C)C)nc3)cc(-c3cnc(N(C)C)nc3)c2s1` [Compound A-18, 1-[5-[2-(tert-butylsulfonylamino)pyrimidin-5-yl]-7-[2-(dimethylamino)pyrimidin-5-yl]-1,3-benzothiazol-2-yl]-3-ethyl-urea]: the MIC in test [5] (setting [7]) is above 64 µg/mL. The “MIC of Compound (μg/ml) … (128 μg/ml)” value in test [6] came out at 0.12 µg/mL.

For the molecule `CCNC(=O)Nc1nc2cc(-c3cnc(C(C)(C)O)nc3)cc(-c3cc(CN4CCOCC4)ccn3)c2s1` [Example 28 (WO2013/138860), 1-ethyl-3-[5-[2-(1-hydroxy-1-methyl-ethyl)pyrimidin-5-yl]-7-[4-(morpholinomethyl)-2-pyridyl]-1,3-benzothiazol-2-yl]urea], the MIC in test [5] (setting [7]) is above 64 µg/mL. Moreover, in test [6], the “MIC of Compound (μg/ml) … (128 μg/ml)” value came to 0.5 µg/mL.

On to `CCNC(=O)Nc1nc2cc(-c3cccnc3)cc(-c3ccccn3)c2s1` [Example 163 (WO2007/148093)], for which, in test [5] (setting [7]), the MIC was above 64 µg/mL. The “MIC of Compound (μg/ml) … (128 μg/ml)” value in test [6] stood at 0.25 µg/mL.

In the case of `CNc1cc(F)cc2c1[nH]c1nc(Oc3ccc(C)nc3)nc(N3CCCC3)c12` [Compound A-23, 6-Fluoro-N-methyl-2-[(6-methyl-3-pyridyl)oxy]-4-pyrrolidin-1-yl-9H-pyrimido[4,5-b]indol-8-amine, reference compound], in test [5] (setting [7]), the MIC is 1 µg/mL (≈ 2.55 µM). Moreover, in test [6], the “MIC of Compound (μg/ml) … (128 μg/ml)” value came out at 0.06 µg/mL.

On to `C[C@@H](O)[C@H]1C(=O)N2C(C(=O)O)=C(S[C@@H]3CN[C@H](C(=O)N(C)C)C3)[C@H](C)[C@H]12` [Meropenem, reference compound], for which, in test [5] (setting [8]), the MIC stood at 0.5 µg/mL (≈ 1.3 µM). Also, in test [6], the “MIC of Compound (μg/ml) … (32 μg/ml)” value is 0.5^(b) μg/ml.

In the case of `CCNC(=O)Nc1nc2cc(-c3cnc(C(C)(O)CO)nc3)ccc2s1` (centres unmarked) [Compound A-7, 1-[5-[2-(1,2-Dihydroxy-1-methyl-ethyl)pyrimidin-5-yl]-1,3-benzothiazol-2-yl]-3-ethyl-urea], the MIC in test [5] (setting [7]) came to 32 µg/mL (≈ 85.7 µM). The “MIC of Compound (μg/ml) … (128 μg/ml)” value in test [6] was determined as 4 µg/mL.

Regarding `COc1cc(Cc2cnc(N)nc2N)cc(OC)c1OC` [Trimethoprim, reference compound], the MIC in test [5] (setting [8]) came to 0.5 µg/mL (≈ 1.72 µM). The “MIC of Compound (μg/ml) … (32 μg/ml)” value in test [6] is recorded as 2^(b) μg/ml.

With `CO/N=C(\C(=O)N[C@@H]1C(=O)N2C(C(=O)O)=C(CSc3nc(=O)c(=O)[nH]n3C)CS[C@H]12)c1csc(N)n1` [Ceftriaxone, reference compound], the MIC in test [5] (setting [8]) is 0.06 µg/mL (≈ 0.108 µM). Also, the “MIC of Compound (μg/ml) … (32 μg/ml)” value in test [6] is 0.06^(b) μg/ml.

With `CC1(C)S[C@@H]2[C@H](NC(=O)[C@H](N)c3ccc(O)cc3)C(=O)N2[C@H]1C(=O)O` [Amoxicillin, reference compound], in test [5] (setting [8]), the MIC was determined as 32 µg/mL (≈ 87.6 µM). The “MIC of Compound (μg/ml) … (32 μg/ml)” value in test [6] came out at 8 µg/mL.
